Measured values as given in US12186283B2, “Bismuth-thiol compositions and methods of use” (Microbion Corporation, priority 2018, dated 2025).
Values joined by “and” are separate entries in the source; they are usually repeats but may differ in a detail not shown here. Equal values may be shown once.

Assays:
[1] = Aerosol particle size distribution of nebulized suspensions (cascade impactor / APS)
[2] = Rat single-dose PK: whole blood BisEDT (bismuth by ICP-MS)
E. coli ATCC 25922 [3] = conditions: CLSI established QC range; cited from earlier work
E. coli ATCC 25922 [4] = conditions: control strain ATCC 25922 E. coli; per CLSI M100-S24 or provided by Microbion; cited from earlier work

C1C[S][Bi]([S]CC[S][Bi]2[S]CC[S]2)[S]1 [BisEDT, bismuth-1,2-ethanedithiol]
Particle Size (GSD) ([1]; BisEDT Lot # ED268-1-11-01, formulation 25 mg/mL, APS): 2.98 (1.8) μm
Particle Size (GSD) ([1]; BisEDT Lot # ED268-1-11-01, formulation 50 mg/mL, APS): 2.83 (1.9) μm
Particle Size (GSD) ([1]; BisEDT Lot # ED268-1-11-01, formulation 75 mg/mL, APS): 3.16 (1.70) μm
Particle Size (GSD) ([1]; BisEDT Lot # ED268-1-11-01, formulation 100 mg/mL, APS): 3.53 (1.71) μm
Particle Size (GSD) ([1]; BisEDT Lot # ED268-1-11-01, formulation 100* mg/mL (asterisk not explained), APS): 3.60 (1.71) μm
Particle Size (GSD) ([1]; BisEDT Lot # ED268-1-11-01 suspension, formulation 1 mg/mL, PARI LC PLUS nebulizer, APS): 1.65 (1.6) μm
Particle Size (GSD) ([1]; BisEDT Lot # XL-47-125, 300 mOsmol/kg vehicle, formulation 10 mg/mL): 1.61 (1.65) μm
Particle Size (GSD) ([1]; BisEDT Lot # XL-47-125, 300 mOsmol/kg vehicle, formulation 50 mg/mL): 2.79 (1.69) μm
Particle Size (GSD) ([1]; BisEDT Lot # XL-47-125, 300 mOsmol/kg vehicle, formulation 100 mg/mL (two tests)): 2.90 (1.67) μm and 2.60 (1.65) μm
MMAD ([1]; exposure aerosols of the rat efficacy study, In-Tox Mercer Impactor): 1.54 μm
duration of initial distribution into tissues ([2]; IV dosing, biphasic pattern): 18 h
systemic levels lower than in the lung ([2]; inhalation dosing): about 10 ×
blood exposure ([2]; inhalation dosing 100 μg/kg): sustained, moderate, blood exposure with relatively stable concentrations across time
blood concentrations ([2]; oral dosing 250 μg/kg): very low, but sustained and measurable
QC Range 24 hr (E. coli ATCC 25922 [3]): 0.5-4
Expected MIC: acceptable range (E. coli ATCC 25922 [4]): 0.5 to 2 µg/mL
Expected MIC: goal (E. coli ATCC 25922 [4]): 1 µg/mL
